Values joined by “and” are separate entries in the source; they are usually repeats but may differ in a detail not shown here. Equal entries are not always repeated. Where two headings read alike, the source gives them in different places.
Tests used:
[1] = system: retinal ganglion cells and photoreceptors; experiment: L-DOPA supplementation in drinking water of tyrosinase deficient pregnant mice and pups (E7 to P14); format: in vivo; conditions: 1.0 mg/ml in drinking water, E7 to P14, tyrosinase deficient mice
OA1 [2] = target: T1, OA1 (Homo sapiens, UniProt P51810); conditions: 1.0 μM
OA1 [3] = target: T1, OA1; conditions: untransfected cells
PEDF secretion by RPE = experiment: PEDF secretion by pigmented RPE cells (ELISA of conditioned medium); format: cell-based
Protocol: Mutations in OA1 cause defects in the development of the neurosensory retina. […] After treatment, the cells were returned to standard medium without exogenous L-DOPA for three days. Control cells were not treated with L-DOPA, but the medium was changed at the same time the experimental cells were returned to normal medium. Conditioned medium was collected after three days and PEDF was measured.
In these experiments, pigmented RPE cells were either maintained in DMEM, or DMEM containing 200 μM PTU for three days, then PEDF secretion was measured. […] The data are presented as percent of control for this experiment because the cultures used varied in both pigmentation and PEDF expression before the experiment began.

OA1 [4] = target: T1, OA1; experiment: Radiolabeled ligand binding of [3H]-L-DOPA to CHO cells transfected to express OA1 (saturation); design: expressed in transfected cells; host or cells: CHO cells (ATCC)
OA1 [5] = target: T1, OA1; experiment: Measurement of [Ca2+]i (Fura-2 ratiometric imaging) in CHO cells transfected to express OA1; format: cell-based; design: expressed in transfected cells; host or cells: CHO cells (ATCC)
OA1 [6] = target: T1, OA1; experiment: Competitive binding against 5 μM [H3] L-DOPA in OA1 transfected CHO cells; design: expressed in transfected cells; host or cells: CHO cells (ATCC)
OA1 [7] = target: T1, OA1; experiment: Cell surface biotinylation / western blot of OA1 in cultured cells at lowered tyrosine; format: cell-based; design: expressed in transfected cells; host or cells: CHO cells (ATCC)
Protocol: Endosomal localization of GPCRs occurs normally after exposure to a ligand. Therefore, it was investigated whether a ligand for the receptor was present in the standard incubation medium that could drive internalization of OA1. Since the standard culture medium contains 500 μM tyrosine, and tyrosine is the starting material for pigment synthesis, the effect of tyrosine on receptor distribution was evaluated. To test whether tyrosine affected OA1 distribution in cultured cells DMEM was formulated without tyrosine, and dialyzed fetal bovine serum was used. In the presence of tyrosine-free medium, OA1 was detected on the plasma membrane of cultured RPE cells both in the absence (not shown), and in medium containing low concentrations of tyrosine (1 μM, FIG. 1 B). […] Similarly, OA1-GFP expressed in COS illustrated a cell surface expression that was tyrosine sensitive (FIG. 1 C). Quantification of six such experiments indicated significant variability in the amount of OA1 found at the cell surface using transient transfections. […]
Not only was the distribution of OA1 in transfected cells sensitive to tyrosine levels in the medium, total OA1-GFP expression was increased 5-fold in cells maintained in 1 μM tyrosine. To verify that this difference related to OA1 expression rather than cell number, actin expression was evaluated from the paired samples. […]

T1 sequence (P51810 whole entry): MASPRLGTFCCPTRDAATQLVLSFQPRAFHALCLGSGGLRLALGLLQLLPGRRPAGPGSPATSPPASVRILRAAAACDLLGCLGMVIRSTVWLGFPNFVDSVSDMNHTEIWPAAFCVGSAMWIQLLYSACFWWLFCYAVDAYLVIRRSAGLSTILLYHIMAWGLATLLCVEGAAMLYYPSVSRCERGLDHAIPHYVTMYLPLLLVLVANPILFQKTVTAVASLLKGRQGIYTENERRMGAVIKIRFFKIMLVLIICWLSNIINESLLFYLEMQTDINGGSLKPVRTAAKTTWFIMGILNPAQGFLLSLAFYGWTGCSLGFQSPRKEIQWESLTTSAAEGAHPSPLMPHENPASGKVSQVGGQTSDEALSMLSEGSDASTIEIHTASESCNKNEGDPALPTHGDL

Molecule: N[C@@H](Cc1ccc(O)c(O)c1)C(=O)O [L-DOPA, 2-amino-3-(3,4-dihydroxyphenyl)propanoic acid]
- photoreceptor nuclear area (measure of photoreceptor numbers) [1]: increased the photoreceptor nuclear area
- retinal ganglion cell numbers [1]: increases retinal ganglion cell numbers
- change in [Ca2+]i (OA1 [2]; RPE cells transfected to express OA1): increase
- change in [Ca2+]i (OA1 [2]; RPE expressing endogenous OA1): increase
- β-arrestin distribution response (OA1 [3]): no response
- PEDF secretion (PEDF secretion by RPE; 1 μM for one hour, medium collected after three days, vs paired control pigmented RPE): significant increase
- PEDF secretion (PEDF secretion by RPE; 1.0 μM in continued presence of PTU, measured after 72 hours): increasing PEDF secretion
- Kd (OA1 [4]; Kd of L-DOPA binding to OA1, OA1 transfected CHO cells, [3H]-L-DOPA): 9.34 µM and 9.35 µM
- specific binding of L-DOPA (OA1 [4]; untransfected CHO cells): No specific binding
- pertussis toxin sensitivity of the [Ca2+]i increase (OA1 [5]; in presence of pertussis toxin, CHO and RPE): not pertussis toxin sensitive

Molecule: NC(=S)Nc1ccccc1 [PTU, phenylthiourea]
- PEDF secretion (PEDF secretion by RPE; 200 μM for three days, pigmented RPE): significant decrease

Molecule: N[C@@H](Cc1ccc(O)cc1)C(=O)O [tyrosine]
- Ki (OA1 [6]): 52.9 µM
- competition with L-DOPA for OA1 binding (OA1 [6]; competitor at 1 mM): competed with L-DOPA
- OA1 in the bound (cell surface) fraction (OA1 [7]; OA1-GFP transfected COS cells maintained in 1 μM tyrosine): 5-40%
- increase of total OA1-GFP expression (OA1 [7]; transfected cells in 1 μM tyrosine vs normal DMEM (500 μM)): 5 fold
- effect on [Ca2+]i (OA1 [5]; concentrations up to 1 mM, OA1 transfected CHO cells): no positive effect

Molecule: pertussis toxin
- basal level of [Ca2+]i (OA1 [5]; all cells studied (transfected CHO and RPE, RPE with endogenous OA1)): lowered the basal level

Reference: patent publication US9861600B2, “Methods and compositions for treating and identifying compounds to treat age-related macular degeneration treatment” (Arizona Board of Regents on behalf of the University of …, priority 2008, dated 2018)
